Data as given in patent US9828385B2, “Spiro-oxazolones” (Hoffmann-La Roche Inc., priority 2014, dated 2017).

Biological target: T1, human V1a receptor (Homo sapiens, UniProt P37288)
T1 construct: expressed in transfected cells; host or cells: HEK293 cells, transiently transfected; cell membranes
Test: human V1a receptor binding studies (3H-Vasopressin, SPA beads)
Settings: membranes of HEK293 cells transiently transfected with human V1a receptor, Ki by Cheng-Prussoff from IC50, read-out: pKi hV1a (converted)
Procedure, shortened: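 Membranes from transiently transfected HEK293 cells expressing cloned human V1a receptor, on yttrium silicate SPA beads, competed against 4 nM 3H-vasopressin (added stock concentration) in Tris buffer with NaCl, KCl, CaCl2, MgCl2 for 1 h at room temperature. Nonspecific binding with cold vasopressin; IC50 by nonlinear fit, Ki via Cheng-Prusoff.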

T1 sequence (P37288 whole entry): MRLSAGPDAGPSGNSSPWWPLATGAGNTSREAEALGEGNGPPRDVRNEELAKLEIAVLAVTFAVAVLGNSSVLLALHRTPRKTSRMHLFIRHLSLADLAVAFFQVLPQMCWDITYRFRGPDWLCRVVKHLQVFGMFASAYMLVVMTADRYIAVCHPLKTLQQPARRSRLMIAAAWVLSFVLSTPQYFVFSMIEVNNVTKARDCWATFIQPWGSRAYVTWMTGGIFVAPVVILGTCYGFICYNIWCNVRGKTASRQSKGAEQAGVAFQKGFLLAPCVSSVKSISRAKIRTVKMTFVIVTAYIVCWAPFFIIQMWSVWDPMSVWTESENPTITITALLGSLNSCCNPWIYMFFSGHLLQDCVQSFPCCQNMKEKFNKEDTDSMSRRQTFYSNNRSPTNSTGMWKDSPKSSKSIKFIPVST

In order of falling Ki:
1. C=CCC1(CC(=C)C(=O)OCC)OC(N2CCC3(CC2)OCc2ccccc23)=NC1=O (stereo not drawn) [Example 61, Ethyl 2-{[4-oxo-5-(prop-2-en-1-yl)-2-(1′H,3H-spiro[2-benzofuran-1,4′-piperidin]-1′-yl)-4,5-dihydro-1,3-oxazol-5-yl]methyl}prop-2-enoate]  794 nM
2. C=CCC1(CC(=C)F)OC(N2CCC3(CC2)OCc2ccccc23)=NC1=O (stereo not drawn) [Example 54, 5-Allyl-5-(2-fluoroallyl)-2-(3H-spiro[isobenzofuran-1,4′-piperidine]-1′-yl)oxazol-4(5H)-one]  631 nM
3. C#CCC1(CC(=C)C(=O)OCC)OC(N2CCC3(CC2)OCc2ccccc23)=NC1=O (stereo not drawn) [Example 62, Ethyl 2-((4-oxo-5-(prop-2-ynyl)-2-(3H-spiro[isobenzofuran-1,4′-piperidine]-1′-yl)-4,5-dihydrooxazol-5-yl)methyl)acrylate]  631 nM
4. CCCCC1(C)OC(N2CCC3(CC2)OC(=O)c2ccccc23)=NC1=O (stereo not drawn) [Example 69, 1′-(5-Butyl-5-methyl-4-oxo-4,5-dihydro-1,3-oxazol-2-yl)-3H-spiro[2-benzofuran-1,4′-piperidin]-3-one]  316 nM
5. O=C1OC2(CCN(C3=NC(=O)C(Cc4ccccc4)O3)CC2)c2cccc(F)c21 (stereo not drawn) [Example 30, 1′-(5-Benzyl-4-oxo-4,5-dihydro-1,3-oxazol-2-yl)-4-fluoro-3H-spiro[2-benzofuran-1,4′-piperidin]-3-one]  200 nM
6. COc1ccc2c(c1)C(=O)OC21CCN(C2=NC(=O)C(Cc3ccccc3)O2)CC1 (stereo not drawn) [Example 31, 1′-(5-Benzyl-4-oxo-4,5-dihydro-1,3-oxazol-2-yl)-5-methoxy-3H-spiro[2-benzofuran-1,4′-piperidin]-3-one]  100 nM
7. O=C1N=C(N2CCC3(CC2)OCc2ncccc23)OC1Cc1ccccc1 (stereo not drawn) [Example 28, 5-Benzyl-2-(1′H,7H-spiro[furo[3,4-b]pyridine-5,4′-piperidin]-1′-yl)-1,3-oxazol-4(5H)-one]  79.4 nM
8. CC1(Cc2c(F)c(F)c(F)c(F)c2F)OC(N2CCC3(CC2)OCc2ccccc23)=NC1=O (stereo not drawn) [Example 88, 5-Methyl-5-(pentafluorobenzyl)-2-(1′H,3H-spiro[2-benzofuran-1,4′-piperidin]-1′-yl)-1,3-oxazol-4(5H)-one]  79.4 nM
9. O=C1OC2(CCN(C3=NC(=O)C(Cc4ccccc4)O3)CC2)c2ccc(Br)cc21 (stereo not drawn) [Example 32, 1′-(5-Benzyl-4-oxo-4,5-dihydro-1,3-oxazol-2-yl)-5-bromo-3H-spiro[2-benzofuran-1,4′-piperidin]-3-one]  63.1 nM
10. C=CCC1(CC(=C)CO[Si](C)(C)C(C)(C)C)OC(N2CCC3(CC2)OCc2ccccc23)=NC1=O (stereo not drawn) [Example 65, 5-[2-({[tert-Butyl(dimethyl)silyl]oxy}methyl)prop-2-en-1-yl]-5-(prop-2-en-1-yl)-2-(1′H,3H-spiro[2-benzofuran-1,4′-piperidin]-1′-yl)-1,3-oxazol-4(5H)-one]  63.1 nM
11. C=CCC1(CC=C)OC(N2CCC3(CC2)OCc2ccccc23)=NC1=O [Example 58, 5,5-Di(prop-2-en-1-yl)-2-(1′H,3H-spiro[2-benzofuran-1,4′-piperidin]-1′-yl)-1,3-oxazol-4(5H)-one]  50.1 nM
12. CC1(Cc2ccc(Cl)nc2)OC(N2CCC3(CC2)OCc2ccccc23)=NC1=O (stereo not drawn) [Example 82, 5-[(6-Chloropyridin-3-yl)methyl]-5-methyl-2-(1′H,3H-spiro[2-benzofuran-1,4′-piperidin]-1′-yl)-1,3-oxazol-4(5H)-one]  50.1 nM
13. C#CCC1(CC=C)OC(N2CCC3(CC2)OCc2ccccc23)=NC1=O (stereo not drawn) [Example 57, 5-(Prop-2-en-1-yl)-5-(prop-2-yn-1-yl)-2-(1′H,3H-spiro[2-benzofuran-1,4′-piperidin]-1′-yl)-1,3-oxazol-4(5H)-one]  39.8 nM
14. CCCCC1(C)OC(N2CCC3(CC2)OCc2ccccc23)=NC1=O (stereo not drawn) [Example 66, 5-Butyl-5-methyl-2-(1′H,3H-spiro[2-benzofuran-1,4′-piperidin]-1′-yl)-1,3-oxazol-4(5H)-one]  39.8 nM
15. CC(=O)OC(c1ccc(Cl)cc1)C1OC(N2CCC3(CC2)OCc2ccccc23)=NC1=O (stereo not drawn) [Example 41, (4-Chlorophenyl)[4-oxo-2-(1′H,3H-spiro[2-benzofuran-1,4′-piperidin]-1′-yl)-4,5-dihydro-1,3-oxazol-5-yl]methyl acetate]  31.6 nM
16. C=CCC1(CC(=C)C(F)(F)F)OC(N2CCC3(CC2)OCc2ccccc23)=NC1=O (stereo not drawn) [Example 60, 5-(Prop-2-en-1-yl)-2-(1′H,3H-spiro[2-benzofuran-1,4′-piperidin]-1′-yl)-5-[2-(trifluoromethyl)prop-2-en-1-yl]-1,3-oxazol-4(5H)-one]  25.1 nM
17. CC1(CC2CCCCC2)OC(N2CCC3(CC2)OCc2ccccc23)=NC1=O (stereo not drawn) [Example 79, 5-(Cyclohexylmethyl)-5-methyl-2-(1′H,3H-spiro[2-benzofuran-1,4′-piperidin]-1′-yl)-1,3-oxazol-4(5H)-one]  20 nM
18. O=C1OC2(CCN(C3=NC(=O)C(Cc4ccccc4)O3)CC2)c2ccc(F)cc21 (stereo not drawn) [Example 27, 1′-(5-Benzyl-4-oxo-4,5-dihydro-1,3-oxazol-2-yl)-5-fluoro-3H-spiro[2-benzofuran-1,4′-piperidin]-3-one]  15.8 nM
19. C=C(C)CC1(CC(=C)C)OC(N2CCC3(CC2)OCc2ccccc23)=NC1=O [Example 56, 5,5-bis(2-Methylprop-2-en-1-yl)-2-(1′H,3H-spiro[2-benzofuran-1,4′-piperidin]-1′-yl)-1,3-oxazol-4(5H)-one]  15.8 nM
20. O=C1N=C(N2CCC3(CC2)SCc2ccccc23)OC1Cc1ccccc1 (stereo not drawn) [Example 33, 5-Benzyl-2-(1′H,3H-spiro[2-benzothiophene-1,4′-piperidin]-1′-yl)-1,3-oxazol-4(5H)-one]  12.6 nM
21. C=CCC1(CC(=C)Br)OC(N2CCC3(CC2)OCc2ccccc23)=NC1=O (stereo not drawn) [Example 63, 5-(2-Bromoprop-2-en-1-yl)-5-(prop-2-en-1-yl)-2-(1′H,3H-spiro[2-benzofuran-1,4′-piperidin]-1′-yl)-1,3-oxazol-4(5H)-one]  12.6 nM
22. C=C(CC1(CC(=C)C(F)(F)F)OC(N2CCC3(CC2)OCc2ccccc23)=NC1=O)C(F)(F)F [Example 64, 2-(3H-Spiro[isobenzofuran-1,4′-piperidine]-1′-yl)-5,5-bis(2-(trifluoromethyl)allyl)oxazol-4(5H)-one]  12.6 nM
23. O=C1N=C(N2CCC3(CC2)OCc2cccnc23)OC1Cc1ccccc1 (stereo not drawn) [Example 29, 5-Benzyl-2-(1′H,5H-spiro[furo[3,4-b]pyridine-7,4′-piperidin]-1′-yl)-1,3-oxazol-4(5H)-one]  10 nM
24. O=C1N=C(N2CCC3(CC2)c2ccccc2CS3(=O)=O)OC1Cc1ccccc1 (stereo not drawn) [Example 34, 5-Benzyl-2-(2,2-dioxido-1′H,3H-spiro[2-benzothiophene-1,4′-piperidin]-1′-yl)-1,3-oxazol-4(5H)-one]  10 nM
25. C=CCC1(CC(=C)C)OC(N2CCC3(CC2)OCc2ccccc23)=NC1=O (stereo not drawn) [Example 59, 5-Allyl-5-(2-methylallyl)-2-(1′H,3H-spiro[2-benzofuran-1,4′-piperidin]-1′-yl)-1,3-oxazol-4(5H)-one]  10 nM
26. CCC1(Cc2ccccc2)OC(N2CCC3(CC2)OCc2ccccc23)=NC1=O (stereo not drawn) [Example 74, 5-Benzyl-5-ethyl-2-(1′H,3H-spiro[2-benzofuran-1,4′-piperidin]-1′-yl)-1,3-oxazol-4(5H)-one]  10 nM
27. O=C1N=C(N2CCC3(CC2)OCc2c(F)cccc23)OC1Cc1ccccc1 (stereo not drawn) [Example 24, 5-Benzyl-2-(4-fluoro-1′H,3H-spiro[2-benzofuran-1,4′-piperidin]-1′-yl)-1,3-oxazol-4(5H)-one]  6.31 nM
28. O=C1N=C(N2CCC3(CC2)OCc2ccc(F)cc23)OC1Cc1ccccc1 (stereo not drawn) [Example 25, 5-Benzyl-2-(6-fluoro-1′H,3H-spiro[2-benzofuran-1,4′-piperidin]-1′-yl)-1,3-oxazol-4(5H)-one]  6.31 nM
29. CC#CCC1(CC#CC)OC(N2CCC3(CC2)OCc2ccccc23)=NC1=O [Example 55, 5,5-Di(but-2-ynyl)-2-(3H-spiro[isobenzofuran-1,4′-piperidine]-1′-yl)oxazol-4(5H)-one]  5.01 nM
30. CC1(CC2CCCC2)OC(N2CCC3(CC2)OCc2ccccc23)=NC1=O (stereo not drawn) [Example 76, 5-(Cyclopentylmethyl)-5-methyl-2-(1′H,3H-spiro[2-benzofuran-1,4′-piperidin]-1′-yl)-1,3-oxazol-4(5H)-one]  5.01 nM
31. CC1(Cc2ccc(Cl)s2)OC(N2CCC3(CC2)OCc2ccccc23)=NC1=O (stereo not drawn) [Example 85, 5-[(5-Chlorothiophen-2-yl)methyl]-5-methyl-2-(1′H,3H-spiro[2-benzofuran-1,4′-piperidin]-1′-yl)-1,3-oxazol-4(5H)-one]  5.01 nM
32. O=C1N=C(N2CCC3(CC2)OCc2ccccc23)OC1C(O)c1ccc(Cl)cc1 (stereo not drawn) [Example 40, 5-[(4-Chlorophenyl)(hydroxy)methyl]-2-(1′H,3H-spiro[2-benzofuran-1,4′-piperidin]-1′-yl)-1,3-oxazol-4(5H)-one]  3.98 nM
33. CC1(Cc2ccc(Cl)cc2)OC(N2CCC3(CC2)OCc2ccccc23)=NC1=O (stereo not drawn) [Example 75, 5-(4-Chlorobenzyl)-5-methyl-2-(1′H,3H-spiro[2-benzofuran-1,4′-piperidin]-1′-yl)-1,3-oxazol-4(5H)-one]  3.98 nM
34. O=C1N=C(N2CCC3(CC2)OCc2cccc(F)c23)OC1Cc1ccccc1 (stereo not drawn) [Example 23, 5-Benzyl-2-(7-fluoro-1′H,3H-spiro[2-benzofuran-1,4′-piperidin]-1′-yl)-1,3-oxazol-4(5H)-one]  2.51 nM
35. O=C1N=C(N2CCC3(CC2)OCc2ccccc23)OC1Cc1ccc(Cl)cc1 (stereo not drawn) [Example 35, 5-(4-Chlorobenzyl)-2-(1′H,3H-spiro[2-benzofuran-1,4′-piperidin]-1′-yl)-1,3-oxazol-4(5H)-one]  2 nM
36. CC1(C)OC2(CCN(C3=NC(=O)C(Cc4ccccc4)O3)CC2)c2ccccc21 (stereo not drawn) [Example 26, 5-Benzyl-2-(3,3-dimethyl-1′H,3H-spiro[2-benzofuran-1,4′-piperidin]-1′-yl)-1,3-oxazol-4(5H)-one]  0.631 nM
